Results taken from DBAASP.
≈ marks a conversion by molar mass, not a printed value.

Columns and labels:
Assay in all cases: ≥ marks a high value that may be exact or a test limit, other limits are often not marked, values filed in µg/mL are converted to µM
[1] = system: Staphylococcus aureus ATCC BAA-1556
[2] = system: Bacillus subtilis
[3] = system: Candida albicans ATCC 2002
[4] = system: Escherichia coli ATCC 25922
[5] = system: Staphylococcus aureus ATCC 2592
[6] = system: Pseudomonas aeruginosa PAO1
[7] = system: Staphylococcus aureus USA 300
[8] = system: Klebsiella pneumoniae ATCC 13883
[9] = system: Salmonella typhimurium
[10] = system: Escherichia coli
[11] = system: Staphylococcus aureus

## CC(C)C[C@H](NC(=O)[C@H](CCCCN)NC(=O)[C@H](CC(C)C)NC(=O)[C@H](CC(C)C)NC(=O)[C@H](Cc1c[nH]c2ccccc12)NC(=O)[C@H](CCCCN)NC(=O)[C@H](CC(C)C)NC(=O)[C@H](CC(C)C)NC(=O)[C@H](CCCCN)NC(=O)[C@@H](N)CCCCN)C(N)=O [KKLLKWLLKL]
[1]
  MIC: 12.5 µM (≈ 16 µg/mL)

## CC(C)[C@H](N)C(=O)N[C@@H](CCCCN)C(=O)N[C@@H](Cc1c[nH]c2ccccc12)C(=O)N[C@@H](CCCN=C(N)N)C(=O)N[C@@H](Cc1c[nH]c2ccccc12)C(=O)N[C@@H](CCCCN)C(=O)N[C@@H](CCCCN)C(=O)N[C@@H](Cc1c[nH]c2ccccc12)C(=O)N[C@@H](CCCN=C(N)N)C(=O)N[C@@H](Cc1c[nH]c2ccccc12)C(=O)N[C@@H](CCCCN)C(=O)N[C@@H](Cc1c[nH]c2ccccc12)C(=O)N[C@@H](CCCCN)C(=O)N[C@@H](Cc1c[nH]c2ccccc12)C(=O)N[C@@H](CCCCN)C(=O)N[C@H](C(N)=O)C(C)C [VKWRWKKWRWKWKWKV]
[2]
  MIC: ≥ 41.4 µM
[3]
  MIC: ≥ 41.4 µM
[4]
  MIC: > 41.4 µM
[5]
  MIC: ≥ 41.4 µM

## CC(C)C[C@H](NC(=O)[C@H](Cc1c[nH]c2ccccc12)NC(=O)[C@H](Cc1c[nH]c2ccccc12)NC(=O)[C@H](CC(C)C)NC(=O)[C@H](Cc1c[nH]c2ccccc12)NC(=O)[C@H](Cc1c[nH]c2ccccc12)NC(=O)[C@H](CC(C)C)NC(=O)[C@H](Cc1c[nH]c2ccccc12)NC(=O)[C@@H](N)CCCN=C(N)N)C(N)=O [RWLWWLWWL]
[1]
  MIC: 6.25 µM (≈ 9.02 µg/mL)

## CC[C@H](C)[C@H](NC(=O)[C@@H](N)Cc1ccccc1)C(=O)N1CCC[C@H]1C(=O)N[C@@H](CC(C)C)C(=O)N[C@H](C(=O)N[C@@H](CO)C(=O)NCC(=O)N[C@@H](CC(C)C)C(=O)N[C@@H](Cc1ccccc1)C(=O)N[C@@H](CO)C(=O)N[C@@H](CCCN=C(N)N)C(=O)N[C@@H](CC(C)C)C(=O)N[C@@H](CC(C)C)C(N)=O)C(C)C [FIPLVSGLFSRLL]
[3]
  MIC: 8.55 µM (≈ 12.5 µg/mL)
[4]
  MIC: 8.55 µM (≈ 12.5 µg/mL)
[5]
  MIC: 4.28 µM (≈ 6.25 µg/mL)

## CC(C)C[C@H](NC(=O)[C@H](CC(C)C)NC(=O)[C@H](CCCCN)NC(=O)CNC(=O)[C@H](CC(C)C)NC(=O)[C@H](CO)NC(=O)[C@H](CO)NC(=O)[C@H](CC(C)C)NC(=O)[C@H](CC(C)C)NC(=O)CN)C(N)=O [GLLSSLGKLL]
[4]
  MIC: > 25 µM
[6]
  MIC: > 25 µM
[7]
  MIC: 25 µM (≈ 25 µg/mL)
[8]
  MIC: 25 µM (≈ 25 µg/mL)

## CC(C)C[C@H](NC(=O)[C@H](CC(C)C)NC(=O)[C@H](CCCCN)NC(=O)[C@H](CC(C)C)NC(=O)[C@H](CCCCN)NC(=O)[C@H](CC(C)C)NC(=O)[C@H](CC(C)C)NC(=O)[C@H](CC(C)C)NC(=O)[C@@H](N)CC(C)C)C(N)=O [LLLLKLKLL]
[1]
  MIC: ≥ 100 µM

## CC[C@H](C)[C@H](NC(=O)[C@H](CC(C)C)NC(=O)[C@H](CCCN=C(N)N)NC(=O)[C@H](CCCN=C(N)N)NC(=O)[C@H](Cc1c[nH]c2ccccc12)NC(=O)[C@@H](N)CCCCN)C(=O)N[C@@H](CCCN=C(N)N)C(=O)N[C@@H](Cc1c[nH]c2ccccc12)C(=O)N[C@@H](CC(C)C)C(N)=O [KWRRLIRWL]
[1]
  MIC: 25 µM (≈ 33.1 µg/mL)

## CC(C)[C@H](NC(=O)CNC(=O)[C@H](CCCN=C(N)N)NC(=O)[C@@H](NC(=O)[C@@H](NC(=O)[C@@H](NC(=O)[C@H](CCCN=C(N)N)NC(=O)CNC(=O)[C@H](Cc1c[nH]c2ccccc12)NC(=O)[C@H](CCCN=C(N)N)NC(=O)[C@@H](NC(=O)[C@@H](NC(=O)[C@@H](NC(=O)CN)C(C)C)C(C)C)C(C)C)C(C)C)C(C)C)C(C)C)C(=O)N[C@@H](CCCN=C(N)N)C(=O)N[C@@H](CCCN=C(N)N)C(N)=O [GVVVRWGRVVVRGVRR]
[2]
  MIC: 4 µM (≈ 7.4 µg/mL)
[9]
  MIC: 4 µM (≈ 7.4 µg/mL)
[10]
  MIC: 8 µM (≈ 14.8 µg/mL)
[11]
  MIC: 8 µM (≈ 14.8 µg/mL)

## CC[C@H](C)[C@H](NC(=O)[C@H](C)NC(=O)[C@H](CCCN=C(N)N)NC(=O)[C@H](CCCN=C(N)N)NC(=O)[C@H](Cc1c[nH]c2ccccc12)NC(=O)[C@@H](N)CCCCN)C(=O)N[C@@H](CCCN=C(N)N)C(=O)N[C@@H](Cc1c[nH]c2ccccc12)C(=O)N[C@@H](CC(C)C)C(N)=O [KWRRAIRWL]
[1]
  MIC: 25 µM (≈ 32.1 µg/mL)
